From the NIST ThermoML archive (doi:10.1016/j.fluid.2013.01.022)
± gives the expanded uncertainty stated by the source.

Experiments:
[1] = refractive index (Na D-line) (dimensionless); details: 298.15 K; 101.33 kPa; Liquid; Standard Abbe refractometry
[2] = 298.15 K; 101.33 kPa; Liquid; Vibrating tube method
[3] = refractive index (Na D-line) (dimensionless); xn = mol fraction of the nth substance listed; details: 298.15 K, 101 kPa, Liquid, Standard Abbe refractometry
[4] = xn = mol fraction of the nth substance listed; details: 298.15 K, 101 kPa, Liquid, Vibrating tube method

CC(CC(C)(C)C)CP(=O)([O-])CC(C)CC(C)(C)C.CCCCCCCCCCCCCC[P+](CCCCCC)(CCCCCC)CCCCCC
Details	mass density [kg/m3]	refractive index
[1]	–	1.47125 ± 0.00039
[2]	886.43 ± 0.24	–

CC(CC(C)(C)C)CP(=O)([O-])CC(C)CC(C)(C)C.CCCCCCCCCCCCCC[P+](CCCCCC)(CCCCCC)CCCCCC + CCO
Details	mass density, [4] [kg/m3]	refractive index, [3]
x2 = 0.051	886.25 ± 0.22	1.47094 ± 0.00041
x2 = 0.1022	886.05 ± 0.21	1.47076 ± 0.00041
x2 = 0.2136	885.54 ± 0.18	1.46988 ± 0.0004
x2 = 0.305	885 ± 0.16	1.46895 ± 0.00039
x2 = 0.4024	884.17 ± 0.15	1.46802 ± 0.00039
x2 = 0.5019	882.93 ± 0.13	1.46563 ± 0.00038
x2 = 0.5976	881.05 ± 0.12	1.46367 ± 0.00038
x2 = 0.6989	877.74 ± 0.12	1.459 ± 0.00037
x2 = 0.7998	871 ± 0.14	1.45104 ± 0.00037
x2 = 0.9003	854.34 ± 0.19	1.44331 ± 0.00037
x2 = 0.9499	840.31 ± 0.25	1.43816 ± 0.00037

CC(CC(C)(C)C)CP(=O)([O-])CC(C)CC(C)(C)C.CCCCCCCCCCCCCC[P+](CCCCCC)(CCCCCC)CCCCCC + CCOC(C)(C)C
Details	mass density, [4] [kg/m3]	refractive index, [3]
x2 = 0.0425	886 ± 0.22	1.4696 ± 0.0004
x2 = 0.0954	885.1 ± 0.21	1.4691 ± 0.0004
x2 = 0.2026	882.46 ± 0.19	1.4673 ± 0.0004
x2 = 0.2904	879.48 ± 0.17	1.4653 ± 0.0004
x2 = 0.4013	874.66 ± 0.15	1.4623 ± 0.0004
x2 = 0.4971	869.23 ± 0.14	1.4587 ± 0.0004
x2 = 0.6023	861.11 ± 0.14	1.4539 ± 0.0004
x2 = 0.7002	850.33 ± 0.16	1.4464 ± 0.0004
x2 = 0.7999	832.96 ± 0.22	1.435 ± 0.0004
x2 = 0.8998	802.31 ± 0.32	1.4225 ± 0.0004
x2 = 0.9503	776.41 ± 0.43	1.4154 ± 0.0004

CCOC(C)(C)C [2-ethoxy-2-methylpropane]
Details	mass density [kg/m3]	refractive index
[1]	–	1.37358 ± 0.00033
[2]	735.85 ± 0.14	–

CCO [ethanol]
Details	mass density [kg/m3]	refractive index
[1]	–	1.35925 ± 0.00033
[2]	785.22 ± 0.12	–

CCCCCCCCCCCCCC[P+](CCCCCC)(CCCCCC)CCCCCC.[Cl-] [trihexyl(tetradecyl)phosphonium chloride]
Details	mass density [kg/m3]	refractive index
[1]	–	1.48175 ± 0.00039
[2]	891.82 ± 0.24	–

CCCCCCCCCCCCCC[P+](CCCCCC)(CCCCCC)CCCCCC.[Cl-] [trihexyl(tetradecyl)phosphonium chloride] + CCOC(C)(C)C
Details	mass density, [4] [kg/m3]	refractive index, [3]
x2 = 0.0473	890.24 ± 0.22	1.4804 ± 0.0004
x2 = 0.1037	888.11 ± 0.21	1.4788 ± 0.0004
x2 = 0.1961	884.09 ± 0.19	1.4762 ± 0.0004
x2 = 0.3076	878.3 ± 0.17	1.4727 ± 0.0004
x2 = 0.3968	872.72 ± 0.16	1.4688 ± 0.0004
x2 = 0.5075	864.28 ± 0.15	1.4624 ± 0.0004
x2 = 0.5981	855.37 ± 0.16	1.4562 ± 0.0004
x2 = 0.6992	841.62 ± 0.18	1.4463 ± 0.0004
x2 = 0.7993	821.34 ± 0.24	1.432 ± 0.0004
x2 = 0.8987	790.03 ± 0.31	1.4104 ± 0.0004
x2 = 0.9496	767.05 ± 0.38	1.3943 ± 0.0004
